According to PubChem BioAssay (NCI):
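Where inhibition never reached the appropriate level, the endpoint shown equals the highest concentration tested. Otherwise, values were interpolated linearly from a five-concentration, 48-hour dose response in 96-well plates. The concentration for 50% growth inhibition is given as GI50. TGI denotes the concentration required for complete inhibition of growth.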

Assays:
Experiment in all cases: inhibition of tumour cell growth, NCI panel, 48 h
OVCAR-4 ovarian = test system: OVCAR-4 ovarian
RPMI-8226 leukemia = test system: RPMI-8226 leukemia
HCC-2998 colon = test system: HCC-2998 colon
SK-OV-3 ovarian = test system: SK-OV-3 ovarian
UO-31 renal = test system: UO-31 renal
SF-539 CNS = test system: SF-539 CNS
NCI-H460 lung = test system: NCI-H460 lung
EKVX NSCLC = test system: EKVX NSCLC

| Structure (SMILES) | GI50 (OVCAR-4 ovarian) [µM] | TGI (OVCAR-4 ovarian) [µM] | GI50 (RPMI-8226 leukemia) [µM] | TGI (RPMI-8226 leukemia) [µM] | GI50 (HCC-2998 colon) [µM] | TGI (HCC-2998 colon) [µM] | GI50 (SK-OV-3 ovarian) [µM] | TGI (SK-OV-3 ovarian) [µM] | GI50 (UO-31 renal) [µM] | TGI (UO-31 renal) [µM] | GI50 (SF-539 CNS) [µM] | TGI (SF-539 CNS) [µM] | GI50 (NCI-H460 lung) [µM] | TGI (NCI-H460 lung) [µM] | GI50 (EKVX NSCLC) [µM] | TGI (EKVX NSCLC) [µM] |
| --- | --- | --- | --- | --- | --- | --- | --- | --- | --- | --- | --- | --- | --- | --- | --- | --- |
| CCCCCCNC(=O)Oc1ccc(/C(=C(\C)c2ccccc2)c2ccc(OCCN(CC)CC)cc2)cc1 | 5.46 | 11.9 | 2.32 | 9.71 | 2.33 | 8.16 | 8.33 | 15.2 | 1.51 | 6.09 | 3.47 | 9.79 | 1.4 | 3.62 | 6.02 | 12.5 |
| NS(=O)(=O)c1ccc(NC(=O)Nc2ccccc2F)cc1 |  | > 100 |  | > 100 |  | > 100 |  | > 100 |  | > 100 |  | > 100 |  | > 100 |  | > 100 |
| CCOC(=O)c1ccccc1-c1c2ccc(=[N+](C)C)cc-2oc2cc(N(C)C)ccc12 | 0.167 | > 41.5 | 0.082 | 4.96 | 0.35 | 13.9 | 0.306 | 1.74 | 2.18 | 8.1 | 0.379 | 5.33 | 0.23 | 4.42 | 0.129 | > 38.9 |
| COC(=O)[C@]12CC[C@@H](C)[C@H](C)[C@@H]1C1=CC[C@@H]3[C@@]4(C)CC(=O)[C@H](OC(=O)c5ccco5)[C@@]5(C)COC(=C45)C[C@@]3(C)[C@]1(C)CC2 | 2.12 | > 100 | 0.584 | > 100 |  | > 100 | 4.67 | > 100 | 1.7 | > 100 | 7.56 | > 100 | 0.568 | > 100 | 2.09 | > 100 |
| O=[As]c1ccc(C(=O)c2ccc(Oc3ccccc3)cc2)cc1 (configuration not stated) | 0.0469 | 0.171 | 0.0267 | 0.105 | 0.0727 | 0.213 | 0.12 | 0.249 | 0.0695 | 0.208 | 0.066 | 0.218 | 0.0439 | 0.183 | 0.0688 | 0.205 |
| O=C(Nc1cccc(C(F)(F)F)c1)c1cc(Br)cc(Br)c1O |  | > 10 |  | 5.86 |  | > 10 |  | 9.38 |  | 8.51 |  | 9.15 |  | > 10 |  | 8.06 |
| CCOC(=O)Cc1csc(NC(=O)COC(=O)c2ccc(OC)cc2)n1 | 98.2 | > 100 | 12.5 | 33.5 | > 100 | > 100 | > 75.4 | > 100 | 5.76 | 11.1 | 19.3 | 37.7 | 33.8 | > 100 | 52.9 | > 100 |
| Oc1ccc(Cl)cc1-c1cc(-c2ccc(F)cc2)n[nH]1 | 0.593 | > 100 | 1.36 | 4.58 | 2.08 | 5.95 | 1.99 | 5.21 | 1.21 | 3.78 | 2.1 | 4.51 | 1.2 | 4.1 | 1.4 | 14 |
| O=C(Nc1cc(-c2cccnc2)nc(NCCCN2CCOCC2)n1)c1cc(Br)cc(C(F)(F)F)c1 | 3.26 | 14.5 | 3.15 | 9.69 | 1.77 | 3.49 | 7.26 | 19.9 | 1.4 | 3.39 | 1.67 | 3.47 | 2.97 | 8.94 | 2.72 | 14.4 |
| C#CCN(Cc1nc2cc(C(F)(F)F)ccc2nc1-c1ccccc1)c1ccc(F)c(F)c1 | > 100 | > 100 | 22.1 | 82.7 | 44.8 | 96.9 | > 100 | > 100 | 36.1 | > 100 | 29.2 | > 100 | 26.5 | > 100 | 17 | 57.2 |
| O=C1c2ccccc2-c2c1c1ccccc1c(=O)n2-c1ccccc1 |  | 19.2 |  | > 100 |  | > 100 |  | 26.4 |  | 23.5 |  | 12.3 |  | 36.6 |  | > 100 |
| O=C(c1ccccc1)C1C(C(=O)c2ccccc2)C(c2ccccc2)N(c2ccccc2)C1c1ccccc1 (configuration not stated) |  |  |  | > 100 |  | > 100 |  |  |  | > 100 |  | > 100 |  | > 100 |  | > 100 |
| COc1cccc(C2=C(c3cn(C)c4cccc(OC)c34)C(=O)NC2=O)c1 | > 21.3 | > 25 | 9.09 | > 24.1 | > 25 | > 25 | 11.6 | > 25 | 17.9 | > 25 | 6.58 | 18.6 | 8.75 | > 25 |  |  |
| COc1cc(-c2nn(-c3ccc(NC(=O)c4cc(Cl)cc(Cl)c4)cc3)cc2-c2ccncc2)ccc1Cl | > 100 | > 100 |  |  | 5.88 | > 100 | > 100 | > 100 | 6.86 | > 100 | 4.73 | > 100 | 8.48 | > 100 | > 100 | > 100 |
| Cc1nnc(-c2ccc(-c3nc4ccccc4o3)cc2)o1 |  |  | > 100 | > 100 | 78.8 | > 100 | 29.7 | 77.7 | > 100 | > 100 | > 100 | > 100 | 25.9 | > 100 | 85 | > 100 |
| CCCCOc1ccc(/C=N/Nc2cc(C)nc3ccc(Cl)cc23)cc1 | 1.56 | 3 | 1.92 | 4.53 | 1.91 | 3.38 | 1.8 | 3.27 | 1.56 | 2.93 | 1.84 | 3.28 |  |  | 1.63 | 3.01 |
| C1C[OH+]CC[OH+]CC[OH+]CC[OH+]CC[OH+]CC[OH+]1.[Cl-].[Nb+5] | > 100 | > 100 | > 100 | > 100 | > 100 | > 100 | > 100 | > 100 | 68.6 | > 100 | > 100 | > 100 | > 100 | > 100 |  |  |
